From patent publication EP2439195B1, “NAPHTHALENE CARBOXAMIDE DERIVATIVES AS INHIBITORS OF PROTEIN KINASE AND HISTONE DEACETYLASE, PREPARATION METHODS AND USES THEREOF” (Shenzhen Chipscreen Biosciences, Ltd., priority 2009, dated 2010)
pIC50: −log10 of the molar value.

How the values were obtained:
MCF-7 = test: Tumor cell proliferation (MTS), MCF-7; format: cell-based; settings: Homo sapiens, MCF7; MCF-7, 72 hours; read-out: Gl50 µM in MCF-7
Experimental: (§1) Tumor cells were trypsinized and plated into 96-well plates at 3,000 per well and incubated in complete medium with 10% FBS for 24 hours. Compounds to be tested and vehicle control were added, and the final concentration of compound is in the range of 100 nmol/L to 100 µmol/L. The compounds were incubated for 72 hours in complete medium. The MTS reagent (Promega) was added according to the instruction, incubated for 2 hours at 37°C in CO2 incubator. Then absorbance at 490nm is read using an ELISA plate reader.

Class I HDAC = test: HDAC subtype selectivity reporter gene assay (P21 reporter, HeLa cells); format: cell-based; settings: Homo sapiens; 10µM; HeLa cells, 24 hours; read-out: Class I HDAC (P21 reporter assay) Fold Induction at 10µM
Experimental: Different HDAC subtypes can bind with different transcriptional factors and involve in expression regulation of various genes. Suitable regulation elements for transcriptional factors are selected to construct reporter genes, which can be used to evaluate the selective inhibition of inhibors on HDAC subtypes. Briefly, HeLa cells were seeded in 96-well plates the day before transfection to give a confluence of 50-80% when transfection. Cells were transfected with one of reporter gene plasmid containing a p21-promoter sequence or response element upstream of a luciferase gene construct using FuGene6 transfection reagent according to the manufacturer's instruction (Roche). For normalizing the transfection efficiency, a GFP expression plasmid was cotransfected. After 24 hours compounds or the vehicle control (DMSO) were added. 24 hours later the cells were harvested and lysed, and the amount of the luciferase was evaluated using luciferase assay kits (Promega) according to the manufacturer's instructions.

human HCT-8 colon cancer = test: Nude mice tumor transplanted from human HCT-8 colon cancer (Example 55); format: in vivo; settings: for TGI (%): tumor growth inhibition
Experimental: Female nu/nu mice of 18∼20g were fed by normal diet for 3 days. Then the cultured HCT-8 human colon cancer cells were implanted into the armpit of 50 mice. […] One group was treated with vehicle. One group was treated with Sutent, the positive control drug. Two groups were treated with compound 33 at different concentrations. The other two groups were treated with compound 37 at different concentrations. Compound 33 was administered twice a day with an interval of 6 hours. For other groups, administration was performed once a day. Each group was dosed orally for 20 days. […] The tumor growth inhibition of each group was calculated using the following formula: {[(the average tumor weight of control group)-(the average tumor weight of test group)]/(the average tumor weight of control group)} × 100%. [formula] The experimental results are shown in Table 9 and Figure 5.

HUVEC cells = test: VEGF dependent cell proliferation (MTS); format: cell-based; settings: Homo sapiens, VEGF 165 (50ng/ml), 72 hours, serum-free medium, read-out: Gl50 nM (VEGF ligand-dependent cell proliferation)
Experimental: HUVEC cells were plated into 96-well plates at 6,000 per well and after 24 hours incubated with serum-free medium for 2 hours. Compounds to be tested and VEGF 165 (50ng/ml) were added and incubated for 72 hours in serum-free medium. The effects on cell proliferation were determined by MTS method (Promega) according to the instruction. Incubation was performed for 2 hours at 37°C in CO2 incubator, and absorbance at 490nm was determined using an ELISA plate reader.

total HDAC enzyme = test: In vitro total HDAC enzyme activity (HDAC Fluorimetric Assay/Drug Discovery Kit, HeLa cell nuclear extract); format: biochemical
Experimental: The in vitro total HDAC enzyme activity was determined by HDAC Fluorimetric Assay/Drug Discovery Kit (BIOMOL) according to manufacture's instruction. The principle of the experiment is as follows: under the action of histone deacetylase (in the experiment, HeLa cell nuclear extract, which was rich in a variety of subtypes of HDAC, was used), an acetyl group is removed from a special substrate Fluor de Lys, thus the free amino is exposed. Upon Developer is added, the substrate will produce fluorescence. For the fluorescence, excitation wavelength is 360nm, and emission wavelength is 460nm. More fully the substrate deacetylated, more higher the fluorescence induced. In the absence of inhibitors, the fluorescence value is taken as the control; when inhibitor is existed, fluorescence value induced will be reduced, while in the case no enzyme is existed (corresponding to the completely inhibition of enzyme activity) the fluorescence value is blank. Generally, after suppression the fluorescence values will be between the control and blank. When analysis is made, blank will be used as 0, and the control will be used as 1. Smaller value means higher inhibitory activity. 1. Add Assay buffer, diluted trichostatin A and test inhibitor to appropriate wells of the microtiter plate. Following table lists the amounts used for each regent of various assay types.
2. Add diluted HeLa nucleoprotein extract to all wells except those that are marked as "blank". 3. Allow diluted Fluor de Lys™ Substrate and the samples in the microtiter plate to equilibrate to 25°C. 4. Initiate HDAC reactions by adding diluted substrate (25 µl) to each well and mixing thoroughly. 5. Allow reactions to proceed for 30 minutes and then stop them by addition of Fluor de Lys™ Developer (50 µl). Incubate plate at room temperature (25°C) for 10-15 min. 6. Read fluorescence of samples on a microtiter-plate reading fluorimeter at a excitation wavelength of 369 nm and a emitted wavelength of 451 nm.

[1] = test system: human SSMC7721 liver cancer; test: Nude mice tumor transplanted from human SSMC7721 liver cancer (Example 56); format: in vivo; settings: for TGI (%): tumor growth inhibition
Experimental: Female nu/nu mice of 18∼20g were fed by normal diet for 3 days. Then the cultured SSMC7721 human liver cancer cells were implanted into the armpit of 50 mice. […] Each group had 8 mice. One group was treated with vehicle. One group was treated with Sutent, the positive control drug. Two groups were treated with compound 33 at different concentrations. The other two groups were treated with compound 37 at different concentrations. Each group was dosed orally once a day for 30 days. […] The tumor growth inhibition of each group was calculated using the following formula: {[(the average tumor weight of control group)-(the average tumor weight of test group)]/(the average tumor weight of control group)} × 100%. [formula] The experimental results are shown in Table 10 and Figure 6. Table10

A-498 = test: Tumor cell proliferation (MTS), A-498; format: cell-based; settings: Homo sapiens, A498; A-498, 72 hours; read-out: Gl50 µM in A-498
Experimental: as §1

HCT-8 = test: Tumor cell proliferation (MTS), HCT-8; format: cell-based; settings: Homo sapiens; HCT-8, 72 hours; read-out: Gl50 µM in HCT-8
Experimental: as §1

Bel-7402 = test: Tumor cell proliferation (MTS), Bel-7402; format: cell-based; settings: Homo sapiens; Bel-7402, 72 hours; read-out: Gl50 µM in Bel-7402
Experimental: as §1

A549 = test: Tumor cell proliferation (MTS), A549; format: cell-based; settings: Homo sapiens; A549, 72 hours; read-out: Gl50 µM in A549
Experimental: as §1

human PDGFRβ = biological target: T1, human PDGFRβ (Homo sapiens, UniProt P09619); test: PDGF dependent cell proliferation (MTS); format: cell-based; settings: PDGFRβ NIH-3T3 cells, PDGF BB (50ng/ml), 72 hours, serum-free medium; read-out: Gl50 nM (PDGF ligand-dependent cell proliferation)
T1 construct: expressed in transfected cells
Experimental: NIH-3T3 mouse fibroblasts cell line engineered to stably express human PDGFRβ was constructed and used to evaluate PDGF dependent cell proliferation. PDGFRβ NIH-3T3 cells were plated into 96-well plates at 5,000 per well and incubated overnight with serum-free medium after 24 hours. Compounds to be tested and PDGF BB (50ng/ml) were added and incubated for 72 hours in serum-free medium. The effects on proliferation were determined by MTS method (Promega) according to the instruction. Incubation was performed for 2 hours at 37°C in CO2 incubator, and absorbance at 490nm was measured using an ELISA plate reader.

[2] = 30 mg/kg orally once a day for 20 days
[3] = 60 mg/kg orally once a day for 20 days
[4] = 30 mg/kg orally once a day for 30 days
[5] = 60 mg/kg orally once a day for 30 days

T1 sequence (P09619 33-1106): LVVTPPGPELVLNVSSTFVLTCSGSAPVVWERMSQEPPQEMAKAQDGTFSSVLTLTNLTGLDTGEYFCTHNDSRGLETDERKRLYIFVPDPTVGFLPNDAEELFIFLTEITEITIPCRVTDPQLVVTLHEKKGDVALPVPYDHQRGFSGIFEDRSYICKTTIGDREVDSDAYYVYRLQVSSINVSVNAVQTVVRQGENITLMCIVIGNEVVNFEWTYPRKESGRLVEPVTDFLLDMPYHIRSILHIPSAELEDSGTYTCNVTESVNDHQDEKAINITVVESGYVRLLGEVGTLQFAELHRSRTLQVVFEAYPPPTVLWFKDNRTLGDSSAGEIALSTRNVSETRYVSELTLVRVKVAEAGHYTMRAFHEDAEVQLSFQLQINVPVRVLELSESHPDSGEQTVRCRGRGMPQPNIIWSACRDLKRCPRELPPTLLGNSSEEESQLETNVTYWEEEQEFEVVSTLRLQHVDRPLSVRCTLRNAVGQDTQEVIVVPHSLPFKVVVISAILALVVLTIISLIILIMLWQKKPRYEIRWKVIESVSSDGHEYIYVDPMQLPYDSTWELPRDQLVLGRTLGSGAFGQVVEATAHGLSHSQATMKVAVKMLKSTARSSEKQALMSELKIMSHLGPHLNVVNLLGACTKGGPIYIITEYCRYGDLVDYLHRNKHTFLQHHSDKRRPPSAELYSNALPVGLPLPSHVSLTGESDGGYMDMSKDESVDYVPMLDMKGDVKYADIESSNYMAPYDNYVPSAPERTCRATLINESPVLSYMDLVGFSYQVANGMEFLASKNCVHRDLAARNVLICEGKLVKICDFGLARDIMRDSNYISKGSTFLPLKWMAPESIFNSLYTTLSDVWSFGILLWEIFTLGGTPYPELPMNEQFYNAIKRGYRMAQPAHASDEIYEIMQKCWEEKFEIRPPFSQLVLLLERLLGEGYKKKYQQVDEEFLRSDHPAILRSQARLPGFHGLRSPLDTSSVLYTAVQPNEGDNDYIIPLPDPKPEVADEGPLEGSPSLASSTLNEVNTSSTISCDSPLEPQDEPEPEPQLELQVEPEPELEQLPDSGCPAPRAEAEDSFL

SMILES: COc1cc2nccc(Oc3ccc4c(C(=O)NCc5ccc(C(=O)Nc6ccccc6N)cc5)cccc4c3)c2cc1OC [Compound 37, N-(4-((2-aminophenyl)carbamoyl)benzyl)-6-(6,7-dimethoxyquinolin-4-yloxy)-1-naphthamide]
- pIC50 (MCF-7): 4.52
- fold induction at 10 µM (Class I HDAC): 3
- Tumor weight (human HCT-8 colon cancer; [2]): 3.89 ± 1.19 g
- Body weight (g) end (human HCT-8 colon cancer; [2]): 23.6 ± 2.2 g
- Body weight (g) start (human HCT-8 colon cancer; [2]): 20.6 ± 0.8 g
- TGI (%) (human HCT-8 colon cancer; [2]): 36.5%
- Tumor weight (human HCT-8 colon cancer; [3]): 3.36 ± 0.80 g
- Body weight (g) end (human HCT-8 colon cancer; [3]): 24.1 ± 2.1 g
- Body weight (g) start (human HCT-8 colon cancer; [3]): 20.8 ± 0.8 g
- TGI (%) (human HCT-8 colon cancer; [3]): 45.1%
- pIC50 (HUVEC cells): 8.40
- % inhibition of total HDAC enzyme activity at 30µM (total HDAC enzyme): 35.9%
- Tumor weight [1, 4]: 1.45 ± 0.58 g
- Body weight (g) end [1, 4]: 25.3 ± 0.9 g
- Body weight (g) start [1, 4]: 20.7 ± 1.2 g
- TGI (%) [1, 4]: 35.6%
- Tumor weight [1, 5]: 1.28 ± 0.51 g
- Body weight (g) end [1, 5]: 24.3 ± 1.1 g
- Body weight (g) start [1, 5]: 21.4 ± 0.6 g
- TGI (%) [1, 5]: 43.3%
- pIC50 (A-498): 4.52
- pIC50 (HCT-8): 4.52
- pIC50 (Bel-7402): 4.52
- pIC50 (A549): 4.52
- pIC50 (human PDGFRβ): 6.80
